ChEMBL document CHEMBL5143623, “Discovery of novel spiro compound as RAF kinase inhibitor with in vitro potency against KRAS mutant cancer” (Bioorg Med Chem Lett, 2022)
Active and inactive are the calls of the source. The rule behind the calls is not given here.

Experiments:
NCI-H358 [1] = assay: Growth inhibition of human H358 cells expressing KRAS […] mutant measured after 3 days by Cell-titer Glo assay; format: functional; settings: NCI-H358, 72 h, time 3 day
[2] = target: RAF proto-oncogene serine/threonine-protein kinase (Homo sapiens, UniProt P04049); assay: Inhibition of human recombinant cRAF measured after 1 hr by TR-FRET assay
Chain of RAF proto-oncogene serine/threonine-protein kinase (P04049 whole entry): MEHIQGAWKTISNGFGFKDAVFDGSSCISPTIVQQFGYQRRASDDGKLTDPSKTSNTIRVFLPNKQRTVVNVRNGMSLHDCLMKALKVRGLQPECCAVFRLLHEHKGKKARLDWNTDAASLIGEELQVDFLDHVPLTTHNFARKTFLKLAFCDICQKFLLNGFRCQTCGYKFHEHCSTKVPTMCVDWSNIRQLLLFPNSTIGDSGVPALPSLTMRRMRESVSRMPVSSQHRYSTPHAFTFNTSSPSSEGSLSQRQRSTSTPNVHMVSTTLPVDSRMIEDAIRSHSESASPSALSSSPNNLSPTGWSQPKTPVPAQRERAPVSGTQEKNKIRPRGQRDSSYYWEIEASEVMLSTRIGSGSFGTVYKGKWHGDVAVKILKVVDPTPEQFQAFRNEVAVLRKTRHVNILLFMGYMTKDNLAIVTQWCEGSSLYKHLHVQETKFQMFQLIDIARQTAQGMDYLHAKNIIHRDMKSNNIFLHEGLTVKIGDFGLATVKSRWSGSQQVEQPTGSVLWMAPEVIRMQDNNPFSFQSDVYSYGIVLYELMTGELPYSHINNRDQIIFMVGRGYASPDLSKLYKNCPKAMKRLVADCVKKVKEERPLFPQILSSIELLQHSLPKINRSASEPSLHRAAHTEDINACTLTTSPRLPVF

NCI-H358 [3] = assay: Effect on Erk signalling pathway in human H358 cells assessed as increase in Erk phosphorylation by HTRF assay; format: functional, cell-based

GI50 (NCI-H358 [1]) [nM] | IC50 [2] [nM] | SMILES | Activity (NCI-H358 [3])
15000 | 4.8 | Cc1ccc(NC(=O)c2ccnc(C(F)(F)F)c2)cc1-c1ccc2c(c1)NC1(CCOCC1)NC2=O | 
4900 | 5 | Cc1ccc(NC(=O)c2ccnc(C(F)(F)F)c2)cc1-c1ccc2c(c1)OC1(CCCOC1)NC2=O (stereo not given) | 
8900 | 55 | Cc1ccc(NC(=O)c2ccnc(C(F)(F)F)c2)cc1-c1ccc2c(c1)N(O)C1(CCOCC1)NC2=O | 
8300 | 4.3 | Cc1ccc(NC(=O)c2ccnc(C(F)(F)F)c2)cc1-c1ccc2c(c1)OC1(CCOC1)NC2=O (stereo not given) | 

The next lines start with the molecule.

SMILES | GI50 (NCI-H358 [1]) [nM] | IC50 [2] [nM] | Activity (NCI-H358 [3])
Cc1ccc(NC(=O)c2ccnc(C(F)(F)F)c2)cc1-c1ccc2c(c1)OC1(CCOCC1)CC2O (stereo not given) | 9100 | 19 | 
Cc1ccc(NC(=O)c2ccnc(C(F)(F)F)c2)cc1-c1cc(OCCO)nc(N2CCOCC2)c1 [NAPORAFENIB] | 3000 |  | Active
Cc1ccc(NC(=O)c2ccnc(C(F)(F)F)c2)cc1-c1ccc2c(c1)OC1(CCNCC1)NC2=O | 15000 | 19 | 
Cc1ccc(NC(=O)c2ccnc(C(F)(F)F)c2)cc1-c1ccc2c(c1)OC1(CCS(=O)(=O)CC1)NC2=O | 7300 | 5 | 
Cc1ccc(NC(=O)c2ccnc(C(F)(F)F)c2)cc1-c1ccc2c(c1)NC1(CCOCC1)NS2(=O)=O | 19000 | 60 | 
Cc1ccc(NC(=O)c2ccnc(C(F)(F)F)c2)cc1-c1ccc2c(c1)OC1(CCOCC1)CC2N (stereo not given) | 6600 | 21 | 
